Experiment [1] deals with PTP1B1-299. More on the design: method as in PMID 15475571. Conditions: PTP1B1-299 ref [20]; cited from earlier work.
The test system of experiment [2] is PTP1B1-301. To be noted: cited from earlier work.
In experiment [3] the test system is PTP1B1-393. Conditions: cited from earlier work.
The subject of experiment [4] is PTP1B1-321. To be noted: cited from earlier work.
Experiment [5] relates to PTP1B1-400. Conditions: cited from earlier work.
For experiment [6], the system named is PTP1B1-405. Conditions: cited from earlier work.
The target in experiment [7] is T1, hPTP1B1-400 (Homo sapiens, UniProt P18031).
T1 sequence (P18031 1-400): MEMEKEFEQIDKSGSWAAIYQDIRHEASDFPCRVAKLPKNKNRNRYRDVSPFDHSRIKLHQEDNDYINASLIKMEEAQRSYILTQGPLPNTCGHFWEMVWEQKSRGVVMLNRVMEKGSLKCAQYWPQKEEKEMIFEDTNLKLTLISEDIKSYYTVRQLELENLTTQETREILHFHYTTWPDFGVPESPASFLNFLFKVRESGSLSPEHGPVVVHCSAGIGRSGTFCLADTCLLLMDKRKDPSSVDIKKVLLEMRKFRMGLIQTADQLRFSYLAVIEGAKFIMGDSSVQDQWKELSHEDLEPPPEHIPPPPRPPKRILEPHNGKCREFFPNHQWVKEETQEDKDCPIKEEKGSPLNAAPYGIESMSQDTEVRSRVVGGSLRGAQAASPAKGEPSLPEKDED
Kind of experiment: Enzyme kinetics of hPTP1B1-400 inhibition. More on the design: the three purified hPTP1B constructs (hPTP1B1-285, hPTP1B1-321, and hPTP1B1-400); His-tag (N); made in house; host or cells: E. coli BL21 (DE3). Format: biochemical. To be noted: for Type of inhibition: hPTP1B1-400, pNPP 0.1-0.5 mM, best fit by R^2; for Vmax: fit of inhibition model. As for the experimental part: The negative control was prepared with the enzyme and substrate in the absence of an inhibitor. The experiments were performed in triplicate. […] (2) y= Vmax x/Km + x,
Vmax is the maximum velocity, x is the […] concentration, and Km is the Michaelis constant.
(3) y= Vmax (x)/Km (1+(I/Ki))+x (4) y= Vmax (x)/((1+I)/(α Ki)) /x+Km ((1+I)/ Ki)/(1+I)/(α Ki)), (5) y= Vmax (x)/ x+(Km/(1+I)/Ki)
Vmax is the maximum velocity, x is the substrate concentration, I is the inhibitor concentration, Km is the Michaelis constant, Ki is the inhibition constant, and α=Vmax without inhibitor/Vmax with inhibitor.

Experiment [8] concerns PTP1B1-298. To be noted: cited from earlier work.
Experiment [9] addresses T2, hPTP1B1-285 (Homo sapiens, UniProt P18031).
T2 sequence (P18031 1-285): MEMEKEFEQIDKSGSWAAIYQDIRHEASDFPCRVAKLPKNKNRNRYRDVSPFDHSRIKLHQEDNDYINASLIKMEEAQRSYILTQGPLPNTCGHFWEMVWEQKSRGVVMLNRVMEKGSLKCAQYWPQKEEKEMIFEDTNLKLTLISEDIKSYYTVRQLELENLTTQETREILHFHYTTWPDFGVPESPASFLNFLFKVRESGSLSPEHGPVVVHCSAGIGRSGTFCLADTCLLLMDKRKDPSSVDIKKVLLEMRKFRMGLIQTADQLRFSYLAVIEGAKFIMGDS
Put plainly: hPTP1B inhibition assay (pNPP), construct hPTP1B1-285. To be noted: read-out: Km of the substrate (pNPP); hPTP1B1-285, no inhibitor.

The target in experiment [10] is T3, hPTP1B1-321 (Homo sapiens, UniProt P18031).
T3 sequence (P18031 1-321): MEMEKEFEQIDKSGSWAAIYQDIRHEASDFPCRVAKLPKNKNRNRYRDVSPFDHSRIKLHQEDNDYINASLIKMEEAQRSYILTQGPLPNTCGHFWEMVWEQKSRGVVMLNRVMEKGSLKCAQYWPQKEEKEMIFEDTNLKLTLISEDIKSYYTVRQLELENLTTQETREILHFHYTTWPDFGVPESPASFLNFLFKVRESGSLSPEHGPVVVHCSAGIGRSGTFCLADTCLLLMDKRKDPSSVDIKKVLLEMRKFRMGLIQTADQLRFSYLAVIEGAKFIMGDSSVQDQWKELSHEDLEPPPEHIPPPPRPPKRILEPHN
Put plainly: hPTP1B inhibition assay (pNPP), construct hPTP1B1-321. Conditions: read-out: Km of the substrate (pNPP); hPTP1B1-321, no inhibitor.

Experiment [11] deals with T1, hPTP1B1-400. Put plainly: hPTP1B inhibition assay (pNPP), construct hPTP1B1-400. Conditions: read-out: Km of the substrate (pNPP); hPTP1B1-400, no inhibitor.

Where two headings read alike, the source gives them in different places.

In the case of `Cc1cc(-c2c3ccccc3c(Br)c3sc(C)c(C)c23)cc(C)c1O[C@H](Cc1ccccc1)C(=O)O` [Ertiprotafib], the 50% inhibitory concentration (IC50) in experiment [1] is > 20 µM. Also, the Inhibition type result in experiment [1], in experiment [2] (PTP1B1-301 ref [18]) and in [3] (PTP1B1-393 ref [18]) was “Nonclassic kinetics: Aggregation” each time.

For `CC(C)[C@@H](CC[C@@H](C)[C@H]1CC[C@H]2[C@@H]3[C@H](O)C[C@H]4C[C@@H](NCCCNCCCCNCCCN)CC[C@]4(C)[C@H]3CC[C@]12C)OS(=O)(=O)O` [Trodusquemine], the Inhibition type result in experiment [4] (PTP1B1-321 ref [7]), in experiment [5] (PTP1B1-400 ref [43]) and in experiment [6] (PTP1B1-405 ref [7]) was “Non-competitive” in each case. Moreover, the IC50 in experiment [5] (PTP1B1-400 ref [43]) is 1 µM.

With `O=C(/C=C/c1ccc(O)c(O)c1)O[C@@H]1C[C@](O)(C(=O)O)C[C@@H](O)[C@H]1O` [CGA, chlorogenic acid], in experiment [2] (PTP1B1-301 ref [47]), the Inhibition type result was “Non-competitive” and the Ki was 8200 µM. Also, in [4] (PTP1B1-321 ref [39]), the IC50 is 9.82 µM and the Inhibition type entry is reported as “Non-competitive”.

On to `C[C@@H]1CC[C@]2(C(=O)O)CC[C@]3(C)C(=CC[C@@H]4[C@@]5(C)C[C@H](O)[C@H](O)C(C)(C)[C@@H]5CC[C@]43C)[C@@H]2[C@]1(C)O` [2β-hydroxy pomolic acid], for which, in experiment [4] (PTP1B1-321 ref [49]), the IC50 was 5.88 µM, the Inhibition type result was “Mixed-competitive” and the inhibitory constant (Ki) is 7.56 µM.

Take `Cc1ccc(C(=O)Nc2ccc(S(=O)(=O)O)c3cc(S(=O)(=O)O)cc(S(=O)(=O)O)c23)cc1NC(=O)c1cccc(NC(=O)Nc2cccc(C(=O)Nc3cc(C(=O)Nc4ccc(S(=O)(=O)O)c5cc(S(=O)(=O)O)cc(S(=O)(=O)O)c45)ccc3C)c2)c1` [SUR, suramin]: in [4] (PTP1B1-321 ref [40], [50]), the IC50 is 11 µM, the Inhibition type result is on record as “Competitive” and the Ki was 4 µM. Moreover, in experiment [5] (PTP1B1-400 ref [28]), the IC50 is 4.1 µM, the Inhibition type result is “Competitive” and the Ki was 7.1 µM. In addition, in experiment [7], the Type of inhibition result is listed as “Competitive”. Further, the Vmax in [7] (hPTP1B1-400, pNPP substrate) turned out to be 0.64 ± 0.02.

As to `CC1=C(O)C(=O)C=C2C1=CC=C1[C@@]2(C)CC[C@@]2(C)[C@@H]3C[C@](C)(C(=O)O)CC[C@]3(C)CC[C@]12C` [Celastrol], in experiment [8] (PTP1B1-298 ref [36]), the IC50 is 4.8 µM, the Inhibition type entry is given as “Non-competitive” and the Kd was 6.1 µM. Also, in experiment [3] (PTP1B1-393 ref [36]), the IC50 is 2.1 µM and the Inhibition type result is “Non-competitive”.

Turning to `COc1ccc(-n2ncc3c2C(C)(C)[C@@H]2CC[C@]4(C)[C@H](C(=O)C=C5[C@@H]6C[C@@](C)(C(=O)O)CC[C@]6(C)CC[C@]54C)[C@@]2(C)C3)cc1` [5 b], the Type of inhibition result in experiment [7] is listed as “Uncompetitive”. Moreover, in experiment [7] (hPTP1B1-400, pNPP substrate), affinity was put at a Ki of 3.42 ± 0.2 µM and the Vmax worked out at 0.87 ± 0.03.

Regarding `O=C(O)C(=O)Nc1ccccc1C(=O)O` [2-(Oxaloamino) benzoic acid (OBA), 2-(oxaloamino) benzoic acid], in experiment [4] (PTP1B1-321 ref [37]), the Inhibition type entry is “Competitive” and the inhibition constant Ki is 200 µM.

On to `[Na+].[Na+].[Na+].[O]=[V]([O-])([O-])[O-]` [SO, sodium orthovanadate], for which, in experiment [4] (PTP1B1-321 ref [39–42]), the IC50 is 1.38 µM, the Inhibition type result is “Competitive” and the Ki is 0.38 µM. Further, the Type of inhibition entry in experiment [7] was “Uncompetitive”. Also, the Vmax in experiment [7] (hPTP1B1-400, pNPP substrate) was determined as 3.20 ± 0.80.

For 2-(hydroxy-phenoxy) acetic acid, in experiment [4] (PTP1B1-321 ref [38]), the Inhibition type entry is given as “Competitive” and the Ki was 9 µM.

In the case of `O=[N+]([O-])c1ccc(OP(=O)(O)O)cc1` [pNPP, p-nitrophenyl phosphate], the results for the Km in experiment [9], in experiment [10] and in experiment [11] were 16.4 ± 1.55 mM, 15.7 ± 1.68 mM and 2.03 ± 0.11 mM, respectively.

For `C[C@H]1[C@H](C)CC[C@]2(C(=O)O)CC[C@]3(C)C(=CC[C@@H]4[C@@]5(C)CC[C@H](O)C(C)(C)[C@@H]5CC[C@]43C)[C@H]12` [UA, ursolic acid], the IC50 in [8] (PTP1B1-298 ref [44]) is 7.1 µM; in experiment [4] (PTP1B1-321 ref [45]), 6.6 µM; in experiment [4] (PTP1B1-321 ref [46]), 3.08 µM; in [5] (PTP1B1-400 ref [28]) it was 5.6 µM. The Inhibition type entry in experiment [8] (PTP1B1-298 ref [44]) is “Non-competitive”; in [4] (PTP1B1-321 ref [45]), “Competitive”; in experiment [4] (PTP1B1-321 ref [46]), “Competitive”; in experiment [5] (PTP1B1-400 ref [28]), “Non-competitive”. For the same compound, the inhibition constant Ki in experiment [8] (PTP1B1-298 ref [44]) is 25.8 µM; in [5] (PTP1B1-400 ref [28]) it was 8.9 µM. The Type of inhibition entry in experiment [7] is on record as “Mixed”. Moreover, the Vmax in [7] (hPTP1B1-400, pNPP substrate) was 0.63 ± 0.08.

For `Oc1cc(Cc2cc(O)c(O)c(Br)c2Cc2cc(O)c(O)c(Br)c2Br)c(Br)c(Br)c1O` [BDB, 3-bromo-4,5-bis(2,3-dibromo-4,5-dihydroxybenzyl)-1,2-benzenediol], in [4] (PTP1B1-321 ref [21]), the IC50 is 1.86 µM and the Inhibition type entry is given as “Competitive”.

`CC1CCC2(C(=O)O)CCC3(C)C(=CCC4C5(C)C(O)C(=O)C(O)C(C)(C)C5CCC43C)C2C1(C)O` (stereo not drawn) [1β,3α,19α-trihydroxy-2-oxours-12-en-28-oic acid]: in experiment [4] (PTP1B1-321 ref [49]), the IC50 was 13.2 µM, the Inhibition type result is on record as “Non-competitive” and the Ki is 10.8 µM.

Regarding `COC(=O)CC[C@@H](C)[C@H]1CC[C@H]2[C@@H]3[C@H](O)C[C@H]4C[C@H](NCCCCNCc5ccccn5)CC[C@]4(C)[C@H]3CC[C@]12C` [DPM-1001], in experiment [6] (PTP1B1-405 ref [48]), the IC50 was 0.1 µM, the Inhibition type result is recorded as “Non-competitive” and the Kd is 0.075 µM.

For `O=C(/C=C/c1ccc(O)c(O)c1)O[C@@H](C(=O)O)[C@@H](OC(=O)/C=C/c1ccc(O)c(O)c1)C(=O)O` [Cichoric acid (CHA), Cichoric acid], in [2] (PTP1B1-301 ref [47]), the Inhibition type entry was “Competitive” and the Ki was 1400 µM. Also, the Inhibition type result in experiment [4] (PTP1B1-321 ref [39]) is “Non-competitive”.

(Values after paper PMC10064822, “The importance of including the C-terminal domain of PTP1B1-400 to identify potential antidiabetic inhibitors” (Journal of Enzyme Inhibition and Medicinal Chemistry, 2023).)
